# Experiments:
# ASK1 = target: T1, ASK1 (Homo sapiens, UniProt Q99683); experiment: ASK1 Kinase Assay (Promega ASK1 Kinase Enzyme System, ADP-Glo); assay type: biochemical; details: enzyme 50 nM, myelin basic protein 1 μg/ml, ATP 10 μM
# T1 construct: purchased Promega V3881
# Description: The ASK1 enzymatic assay was run following Promega ASK1 Kinase Enzyme System (Cat #V3881). The kit provides the protocol, enzymes and all reagents necessary to run an assay.
# Firstly, the compounds, enzyme, substrate and ATP were diluted in provided assay buffer. The final concentration of the enzyme was 50 nM, substrate (Myelin basic protein) 1 μg/ml and ATP 10 μM. The compound and the enzyme were pre-incubated in a 384 well white solid bottom plate (Greiner, Cat #784075) for 10 minutes. After incubation, the substrate and ATP were added and incubated for further 60 minutes. After 60 minutes, ADP-Glo™ was added and plate was incubated for another 40 minutes. After 40 minutes, Kinase Detection Reagent was added and the plate was incubated for 45 minutes. After 45 minutes, plate was read on Perkin Elmer EnVision using luminescence read (0.5 seconds/well).
# [1] = tested on: LPS-induced TNFalpha in human PBMCs; experiment: Inhibition of LPS-induced TNFalpha in human PBMCs (ELISA); assay type: cell-based; details: PBMC, 100 ng/ml LPS, 6 hr, read-out: TNFa Inhibition IC50
# Description: Cryopreserved human PBMCs were obtained from AllCells (cat #PB003F). After thawing/dilution protocols using RPMI medium supplemented with 5% FBS (heat inactivated), 100 ul/well of 1×10^6 cells/ml were plated into 96 well tissue culture plates (Corning). Cells were then pre-incubated for 1 hr at 37° C. in humidified 5% CO2 and 95% air with test compounds diluted in DMSO (final DMSO concentration 0.3%). Each compound was tested at 10 concentrations in duplicate wells. After the pre-incubation, 100 ng/ml LPS (E. Coli; Sigma) in RPMI media with 5% FBS was added for a 6 hr incubation at 37° C. in humidified 5% CO2 and 95% air. Controls on each plate included cells and LPS only, cells and media only (no LPS), and media only. After the 6 hr incubation, plates were centrifuged and the supernatants transferred to a new plate and frozen for subsequent TNFalpha analysis. Human TNFalpha was analyzed by ELISA according to the manufacturer's instructions (BD Sciences, BD OptEIAm Cat #550610) and analyzed on a SpectraMax M series (Molecular Devices) microplate reader at OD 450 nm. IC50s were calculated using XLFit4 curve fitting software (IDBS) and a 4-parameter one-site sigmoid dose response fit.
# T1 sequence (Q99683 649-946 limits assumed): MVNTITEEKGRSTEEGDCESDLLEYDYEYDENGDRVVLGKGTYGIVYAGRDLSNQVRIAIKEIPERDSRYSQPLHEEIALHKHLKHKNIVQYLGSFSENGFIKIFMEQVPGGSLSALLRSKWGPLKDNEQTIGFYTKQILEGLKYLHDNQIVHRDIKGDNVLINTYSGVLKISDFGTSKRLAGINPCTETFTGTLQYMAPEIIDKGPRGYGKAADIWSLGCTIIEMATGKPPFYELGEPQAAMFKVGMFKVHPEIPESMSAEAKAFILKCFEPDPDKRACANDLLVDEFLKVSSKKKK
Compound,IC50 (ASK1) [µM],IC50 [1] [µM]
"2-(6-(4-cyclopropyl-4H-1,2,4-triazol-3-yl)pyridin-2-yl)-5-isopropoxy-6-(pyridin-3-yl)isoindolin-1-one [Compound 70]",< 0.2,
"O=C(c1ccc2c(c1)CN(c1cccc(-c3nncn3C3CC3)n1)C2=O)N1CCOCC1 [Compound 7, 2-(6-(4-cyclopropyl-4H-1,2,4-triazol-3-yl)pyridin-2-yl)-5-(morpholine-4-carbonyl)isoindolin-1-one]",,> 10
"O=C(c1ccc2c(c1)CN(c1cccc(-c3nncn3C3CC3)n1)C2=O)N1CCC(O)CC1 [Compound 12, 2-(6-(4-cyclopropyl-4H-1,2,4-triazol-3-yl)pyridin-2-yl)-5-(4-hydroxypiperidine-1-carbonyl)isoindolin-1-one]",,> 10
"CC1(O)CCN(C(=O)c2ccc3c(c2)CN(c2cccc(-c4nncn4C4CC4)n2)C3=O)CC1 [Compound 13, 2-(6-(4-cyclopropyl-4H-1,2,4-triazol-3-yl)pyridin-2-yl)-5-(4-hydroxy-4-methylpiperidine-1-carbonyl)isoindolin-1-one]",,> 10
"CC(=O)N1CCN(C(=O)c2ccc3c(c2)CN(c2cccc(-c4nncn4C4CC4)n2)C3=O)CC1 [Compound 16, 5-(4-acetylpiperazine-1-carbonyl)-2-(6-(4-cyclopropyl-4H-1,2,4-triazol-3-yl)pyridin-2-yl)isoindolin-1-one]",,> 10
"CC(=O)NC1CCN(C(=O)c2ccc3c(c2)CN(c2cccc(-c4nncn4C4CC4)n2)C3=O)CC1 [Compound 17, N-(1-(2-(6-(4-cyclopropyl-4H-1,2,4-triazol-3-yl)pyridin-2-yl)-1-oxoisoindoline-5-carbonyl)piperidin-4-yl)acetamide]",,> 10
Cn1ccc(-c2ccc3c(c2)CN(c2cccc(-c4nncn4C4CC4)n2)C3=O)n1 [Compound 27],< 0.2,
CN(C)c1ccc2c(c1)CN(c1cccc(-c3nncn3C3CC3)n1)C2=O [Compound 34],< 0.2,
"O=C1c2cc(-c3cnc(C4CC4)cn3)ccc2CN1c1cccc(-c2nncn2C2CC2)n1 [Compound 60, 2-(6-(4-cyclopropyl-4H-1,2,4-triazol-3-yl)pyridin-2-yl)-6-(5-cyclopropylpyrazin-2-yl)isoindolin-1-one]",,> 10
"O=C(Nc1cc2c(cc1F)CN(c1cccc(-c3nncn3C3CC3)n1)C2=O)C1CC1 [Compound 75, N-(2-(6-(4-cyclopropyl-4H-1,2,4-triazol-3-yl)pyridin-2-yl)-6-fluoro-3-oxoisoindolin-5-yl)cyclopropanecarboxamide]",0.2 to 1,
